Where two headings read alike, the source gives them in different places. Square brackets hold non-standard residues; d marks the D form. Peptide text beside a SMILES is read from it. Bip = N[C@@H](Cc1ccc(-c2ccccc2)cc1)C(=O)O; αMePhe(2-F) = C[C@](N)(Cc1ccccc1F)C(=O)O; Phe(2-F) = N[C@@H](Cc1ccccc1F)C(=O)O; Aib = CC(C)(N)C(=O)O
Biological target: T1, hGLP1 receptor (Homo sapiens, UniProt P43220)
T1 construct: expressed in transfected cells; host or cells: HEK (human embryonic kidney) cells co-expressing hGLP1 receptor and CRE-Luciferase
Experiment: GLP-1 receptor agonism assay (HTRF cAMP, HEK cells co-expressing hGLP1 receptor and CRE-Luciferase)
Assay type: cell-based
Conditions: for Emax: HEK293, Table 6 potency profile; for dpEC50 (contribution of Cα-methylation): dpEC50 = pEC50 (Aib) − pEC50 (Ala) − 0.97, Aib peptide versus the Ala peptide of the same line; for dpEC50 (contribution of Cα-methylation) / EC50 / pEC50: 0% HSA; for decreased potency by Aib substitution: Aib-scanning, versus parent analog RXL-101; for pEC50: Table 4, Aib-scan peptides
Description: Human embryonic kidney cells (HEK) co-expressing the hGLP1 receptor and CRE-Luciferase construct were used to determine agonist potency in this assay. The cells were thawed briefly at 37 °C, transferred to a sterile tube, and re-suspended in complete media at 37 °C. Cells were centrifuged at 1000 rpm for 5 min and collected; the cells were then re-suspended in an assay buffer consisting of Dulbecco’s phosphate-buffered saline (DPBS, GIBCO) with 500 μM of the phosphodiesterase inhibitor 3-isobutyl-1-methylxanthine (IBMX). The assay medium had 0% serum albumin, as specified in Table 1, Table 2, Table 3 and Table 4. The optimal cell density was determined to be 1000 cells/well. Cells were added to wells in 384-well plates containing appropriate pre-prepared dilutions of compounds (test peptides or reference compound exendin-4), sealed, and incubated with CO2 for 30 min. Test peptide solutions were diluted from 10 mM stock solutions to be used in two separate runs (performed in triplicate) from a maximal concentration of 1.0 μM, with 11 concentrations tested for each peptide using serial 1:3 dilution from this maximal concentration. […] The agonist assay was a homogeneous time-resolved fluorescence (HTRF) assay (Cisbio). Following incubation of the cells for 30 min with test or reference peptides, 5 μL of the cAMP acceptor cAMP-d2, prepared previously as a working solution from frozen stock (1:20 dilution), was added to each well of the assay plate along with 5 μL of anti-cAMP antibody-cryptate working solution (diluted 1:20 from frozen stock). The wells were incubated for 1 h at room temperature, and fluorescence was then read at 665 and 615 nm with an Envision reader with a TRF laser. Data were saved and analyzed using Prism software (GraphPad). Concentration–response analysis was performed using 4-parameter logistic fits of the resulting data, and EC50 values were obtained for each test and reference compound.

[1] = Table 1, Phe6 modifications, average of two independent experiments in triplicate (RXL-3039 tested once), read-out: cAMP EC50
[2] = Table 2, Ala-scanning, >1000 nM = out of range, read-out: cAMP EC50
[3] = Table 4, Ala-scan peptides, read-out: pEC50 (converted)

T1 sequence (P43220 24-463): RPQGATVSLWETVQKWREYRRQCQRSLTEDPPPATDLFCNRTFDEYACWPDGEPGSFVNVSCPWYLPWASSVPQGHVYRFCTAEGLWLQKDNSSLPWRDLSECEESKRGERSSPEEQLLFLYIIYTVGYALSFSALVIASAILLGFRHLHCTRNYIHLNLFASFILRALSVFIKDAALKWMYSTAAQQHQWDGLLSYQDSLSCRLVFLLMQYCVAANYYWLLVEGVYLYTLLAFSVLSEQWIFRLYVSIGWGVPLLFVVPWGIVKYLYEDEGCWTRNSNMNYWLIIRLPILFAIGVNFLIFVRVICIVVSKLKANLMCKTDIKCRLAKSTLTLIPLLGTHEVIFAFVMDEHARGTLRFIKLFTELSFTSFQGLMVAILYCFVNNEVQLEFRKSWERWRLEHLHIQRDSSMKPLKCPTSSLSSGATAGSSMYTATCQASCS

Structure (SMILES): C[C@@H](O)[C@H](NC(=O)[C@](C)(Cc1ccccc1F)NC(=O)C(C)(C)NC(=O)CNC(=O)[C@H](CCC(=O)O)NC(=O)C(C)(C)NC(=O)[C@@H](N)Cc1c[nH]cn1)C(=O)N[C@@H](CO)C(=O)N[C@@H](CC(=O)O)C(=O)N[C@@H](Cc1ccc(-c2ccccc2)cc1)C(=O)N[C@@H](Cc1ccc(-c2ccccc2)cc1)C(N)=O [RXL-3033, His-Aib-Glu-Gly-Aib-α-Me-Phe(2-F)-Thr-Ser-Asp-Bip-Bip-NH2] (H-H[Aib]EG[Aib][αMePhe(2-F)]TSD[Bip][Bip]-NH2)
- Emax: 120%
- dpEC50 (contribution of Cα-methylation): −1.00

Structure (SMILES): C[C@@H](O)[C@H](NC(=O)CNC(=O)[C@H](CCC(=O)O)NC(=O)C(C)(C)NC(=O)[C@@H](N)Cc1c[nH]cn1)C(=O)N[C@@H](Cc1c[nH]c2ccccc12)C(=O)N[C@H](C(=O)N[C@@H](CO)C(=O)N[C@@H](CC(=O)O)C(=O)N[C@@H](Cc1ccc(-c2ccccc2)cc1)C(=O)N[C@@H](Cc1ccc(-c2ccccc2)cc1)C(N)=O)[C@@H](C)O [RXL-3023, His-Aib-Glu-Gly-Thr-Trp-Thr-Ser-Asp-Bip-Bip-NH2] (H-H[Aib]EGTWTSD[Bip][Bip]-NH2)
- Emax: 106%
- EC50 [1]: 13.8 nM

Structure (SMILES): C[C@H](NC(=O)CNC(=O)[C@H](CCC(=O)O)NC(=O)C(C)(C)NC(=O)[C@@H](N)Cc1c[nH]cn1)C(=O)N[C@@H](Cc1ccccc1F)C(=O)N[C@H](C(=O)N[C@@H](CO)C(=O)N[C@@H](CC(=O)O)C(=O)N[C@@H](Cc1ccc(-c2ccccc2)cc1)C(=O)N[C@@H](Cc1ccc(-c2ccccc2)cc1)C(N)=O)[C@@H](C)O [RXL-3004, His-Aib-Glu-Gly-Ala-Phe(2-F)-Thr-Ser-Asp-Bip-Bip-NH2] (H-H[Aib]EGA[Phe(2-F)]TSD[Bip][Bip]-NH2)
- Emax: 108%
- EC50 [2]: 7.7 nM
- EC50 [3]: 6.92 nM

Structure (SMILES): C[C@@H](O)[C@H](NC(=O)CNC(=O)[C@H](CCC(=O)O)NC(=O)C(C)(C)NC(=O)[C@@H](N)Cc1c[nH]cn1)C(=O)N[C@@H](Cc1ccccc1[N+](=O)[O-])C(=O)N[C@H](C(=O)N[C@@H](CO)C(=O)N[C@@H](CC(=O)O)C(=O)N[C@@H](Cc1ccc(-c2ccccc2)cc1)C(=O)N[C@@H](Cc1ccc(-c2ccccc2)cc1)C(N)=O)[C@@H](C)O [RXL-3014, His-Aib-Glu-Gly-Thr-Phe(2-NO2)-Thr-Ser-Asp-Bip-Bip-NH2]
- Emax: 104%
- EC50 [1]: 1.1 nM

Structure (SMILES): C[C@@H](O)[C@H](NC(=O)CNC(=O)[C@H](CCC(=O)O)NC(=O)C(C)(C)NC(=O)[C@@H](N)Cc1c[nH]cn1)C(=O)N[C@@](C)(Cc1ccccc1F)C(=O)N[C@H](C(=O)N[C@@H](CO)C(=O)NC(C)(C)C(=O)N[C@@H](Cc1ccc(-c2ccccc2)cc1)C(=O)N[C@@H](Cc1ccc(-c2ccccc2)cc1)C(N)=O)[C@@H](C)O [RXL-3036, His-Aib-Glu-Gly-Thr-α-Me-Phe(2-F)-Thr-Ser-Aib-Bip-Bip-NH2] (H-H[Aib]EGT[αMePhe(2-F)]TS[Aib][Bip][Bip]-NH2)
- decreased potency by Aib substitution: ≥ 100 fold
- Emax: 96.7%
- pEC50: 7.04
- dpEC50 (contribution of Cα-methylation): −2.26
- decreased potency of Aib analog versus Ala analog (same position, Ala superior to Aib): about fivefold

Structure (SMILES): C[C@H](NC(=O)[C@H](Cc1ccccc1F)NC(=O)[C@@H](NC(=O)CNC(=O)[C@H](CCC(=O)O)NC(=O)C(C)(C)NC(=O)[C@@H](N)Cc1c[nH]cn1)[C@@H](C)O)C(=O)N[C@@H](CO)C(=O)N[C@@H](CC(=O)O)C(=O)N[C@@H](Cc1ccc(-c2ccccc2)cc1)C(=O)N[C@@H](Cc1ccc(-c2ccccc2)cc1)C(N)=O [RXL-3005, His-Aib-Glu-Gly-Thr-Phe(2-F)-Ala-Ser-Asp-Bip-Bip-NH2] (H-H[Aib]EGT[Phe(2-F)]ASD[Bip][Bip]-NH2)
- Emax: 102%
- EC50 [2]: 47.5 nM
- EC50 [3]: 21.4 nM

Structure (SMILES): C[C@@H](O)[C@H](NC(=O)CNC(=O)[C@H](CCC(=O)O)NC(=O)C(C)(C)NC(=O)[C@@H](N)Cc1c[nH]cn1)C(=O)N[C@@H](Cc1ccccc1C#N)C(=O)N[C@H](C(=O)N[C@@H](CO)C(=O)N[C@@H](CC(=O)O)C(=O)N[C@@H](Cc1ccc(-c2ccccc2)cc1)C(=O)N[C@@H](Cc1ccc(-c2ccccc2)cc1)C(N)=O)[C@@H](C)O [RXL-3015, His-Aib-Glu-Gly-Thr-Phe(2-CN)-Thr-Ser-Asp-Bip-Bip-NH2]
- Emax: 101%
- EC50 [1]: 7.7 nM

Structure (SMILES): C[C@@H](O)[C@H](NC(=O)CNC(=O)[C@H](CCC(=O)O)NC(=O)C(C)(C)NC(=O)C(C)(C)N)C(=O)N[C@@](C)(Cc1ccccc1F)C(=O)N[C@H](C(=O)N[C@@H](CO)C(=O)N[C@@H](CC(=O)O)C(=O)N[C@@H](Cc1ccc(-c2ccccc2)cc1)C(=O)N[C@@H](Cc1ccc(-c2ccccc2)cc1)C(N)=O)[C@@H](C)O [RXL-3030, Aib-Aib-Glu-Gly-Thr-α-Me-Phe(2-F)-Thr-Ser-Asp-Bip-Bip-NH2] (H-[Aib][Aib]EGT[αMePhe(2-F)]TSD[Bip][Bip]-NH2)
- decreased potency by Aib substitution: < 10 fold
- Emax: 112%
- dpEC50 (contribution of Cα-methylation): −0.26

Structure (SMILES): C[C@@H](O)[C@H](NC(=O)CNC(=O)[C@H](CCC(=O)O)NC(=O)C(C)(C)NC(=O)[C@@H](N)Cc1c[nH]cn1)C(=O)N[C@@H](Cc1ccccc1C(F)(F)F)C(=O)N[C@H](C(=O)N[C@@H](CO)C(=O)N[C@@H](CC(=O)O)C(=O)N[C@@H](Cc1ccc(-c2ccccc2)cc1)C(=O)N[C@@H](Cc1ccc(-c2ccccc2)cc1)C(N)=O)[C@@H](C)O [RXL-3012, His-Aib-Glu-Gly-Thr-Phe(2-CF3)-Thr-Ser-Asp-Bip-Bip-NH2]
- Emax: 99.3%
- EC50 [1]: 13.9 nM

Structure (SMILES): C[C@@H](O)[C@H](NC(=O)C(C)(C)NC(=O)[C@H](CCC(=O)O)NC(=O)C(C)(C)NC(=O)[C@@H](N)Cc1c[nH]cn1)C(=O)N[C@@](C)(Cc1ccccc1F)C(=O)N[C@H](C(=O)N[C@@H](CO)C(=O)N[C@@H](CC(=O)O)C(=O)N[C@@H](Cc1ccc(-c2ccccc2)cc1)C(=O)N[C@@H](Cc1ccc(-c2ccccc2)cc1)C(N)=O)[C@@H](C)O [RXL-3032, His-Aib-Glu-Aib-Thr-α-Me-Phe(2-F)-Thr-Ser-Asp-Bip-Bip-NH2] (H-H[Aib]E[Aib]T[αMePhe(2-F)]TSD[Bip][Bip]-NH2)
- rescue of potency by Aib versus Ala substitution (Aib analog versus Ala analog at the same position): about 10 fold
- decreased potency by Aib substitution: ≥ 100 fold
- Emax: 118%
- pEC50: 7.80
- dpEC50 (contribution of Cα-methylation): 0.37

Structure (SMILES): C[C@H](NC(=O)[C@@H](N)Cc1c[nH]cn1)C(=O)N[C@@H](CCC(=O)O)C(=O)NCC(=O)N[C@H](C(=O)N[C@@H](Cc1ccccc1F)C(=O)N[C@H](C(=O)N[C@@H](CO)C(=O)N[C@@H](CC(=O)O)C(=O)N[C@@H](Cc1ccc(-c2ccccc2)cc1)C(=O)N[C@@H](Cc1ccc(-c2ccccc2)cc1)C(N)=O)[C@@H](C)O)[C@@H](C)O [RXL-3002, His-Ala-Glu-Gly-Thr-Phe(2-F)-Thr-Ser-Asp-Bip-Bip-NH2]
- Emax: 102%
- EC50 [2]: 0.2 nM

Structure (SMILES): C[C@@H](O)[C@H](NC(=O)CNC(=O)[C@H](CCC(=O)O)NC(=O)C(C)(C)NC(=O)[C@@H](N)Cc1c[nH]cn1)C(=O)N[C@@H](Cc1ccccc1Cl)C(=O)N[C@H](C(=O)N[C@@H](CO)C(=O)N[C@@H](CC(=O)O)C(=O)N[C@@H](Cc1ccc(-c2ccccc2)cc1)C(=O)N[C@@H](Cc1ccc(-c2ccccc2)cc1)C(N)=O)[C@@H](C)O [RXL-3011, His-Aib-Glu-Gly-Thr-Phe(2-Cl)-Thr-Ser-Asp-Bip-Bip-NH2]
- Emax: 91.3%
- EC50 [1]: 0.9 nM

Structure (SMILES): C[C@@H](O)[C@H](NC(=O)CNC(=O)[C@H](CCC(=O)O)NC(=O)C(C)(C)NC(=O)[C@@H](N)Cc1c[nH]cn1)C(=O)N[C@@H](Cc1ccccc1Br)C(=O)N[C@H](C(=O)N[C@@H](CO)C(=O)N[C@@H](CC(=O)O)C(=O)N[C@@H](Cc1ccc(-c2ccccc2)cc1)C(=O)N[C@@H](Cc1ccc(-c2ccccc2)cc1)C(N)=O)[C@@H](C)O [RXL-3010, His-Aib-Glu-Gly-Thr-Phe(2-Br)-Thr-Ser-Asp-Bip-Bip-NH2]
- Emax: 121%
- EC50 [1]: 3.85 nM

Structure (SMILES): C[C@H](NC(=O)[C@H](Cc1ccc(-c2ccccc2)cc1)NC(=O)[C@H](CC(=O)O)NC(=O)[C@H](CO)NC(=O)[C@@H](NC(=O)[C@H](Cc1ccccc1F)NC(=O)[C@@H](NC(=O)CNC(=O)[C@H](CCC(=O)O)NC(=O)C(C)(C)NC(=O)[C@@H](N)Cc1c[nH]cn1)[C@@H](C)O)[C@@H](C)O)C(N)=O [RXL-3009, His-Aib-Glu-Gly-Thr-Phe(2-F)-Thr-Ser-Asp-Bip-Ala-NH2]
- decreased potency by Ala substitution in RXL-3000 (Ala-scanning, versus RXL-3000): > 1000 fold
- Emax: 43.2%
- EC50 [2]: > 1000 nM
- decreased potency (Aib/Ala comparison) (versus respective parent analog): 10,000 fold
